Experiments:
[1] = Toxicity/tolerability in mice transplanted with TMZ-resistant brain tumors; conditions: for Survival of mice to the end of the testing period: 10 or 20 mg/kg IV with TMZ 10 mg/kg, testing period (15)/19 days; for Toxicity (body weight decrease, low survival rate): dose of 10 mg/kg or above IV, with TMZ 10 mg/kg IP
Description: (§1) To evaluate the toxicity of DTX and CTX and the efficacy of direct administration of DTX and CTX on treating TMZ resistant brain tumors, 36 mice transplanted with TMZ-resistant brain tumors were used in the experiments, divided into six groups, each group having six mice; details of dosage are noted in Table 7 below:
(§2) The administration frequency was twice per week until the end of the study. DTX, CTX and PBS were intravenously (IV) injected and TMZ was intraperitoneally (IP) injected into mice. To assess overall survival, mice were monitored up to the point of spontaneous death or approaching moribund status.

[2] = test system: TMZ-resistant glioma cells (U87MG-R); test: Orthotopic TMZ-resistant brain tumor mouse model (survival, tumor size)
Protocol: TMZ-resistant glioma cells (U87MG-R) were cultured at 37° C. in a humidified 5% CO2 atmosphere in Dulbecco's Modified Eagle Medium (DMEM) supplemented with 10% fetal bovine serum and 100 ug/mL penicillin/streptomycin. NOD-SCID male mice (8-week-old) were purchased from BioLASCO Taiwan Co. Ltd. For intracranial transplantation, an experimental procedure was performed under sterile conditions. For TMZ-resistant glioblastoma transplantation, a skull burr hole was created in the right frontal brain area. Cells (2×10^5, or five microliters of TMZ-resistant glioma cell suspension (U87MG-R, 6×10^5 cells/5 μL) were injected into the cortex at a depth of 3 mm using stereotactic guidance and a microprocessor single syringe (Harvard Apparatus, Holliston, MA, USA).
as §2
Body weight and survival time of animals were monitored up to the point of spontaneous death.

[3] = mouse, in vivo, iv
Description: as §1, §2

[4] = 10 mg/kg IV + TMZ 10 mg/kg IP, twice per week
[5] = 20 mg/kg IV + TMZ 10 mg/kg IP, twice per week
[6] = PBS IV + TMZ 10 mg/kg IP, twice per week

SMILES | Survival of mice to the end of the testing period [1] | Toxicity (body weight decrease, low survival rate) [1] | Median Survival Time (days after 1st injection) [2, 4] | Median Survival Time (days after implantation of tumor cells) [2, 4] | Median Survival Time (days after 1st injection) [2, 5] | Median Survival Time (days after implantation of tumor cells) [2, 5] | Signs of toxicity [3] | Median Survival Time (days after 1st injection) [2, 6] | Median Survival Time (days after implantation of tumor cells) [2, 6] | Median Survival Time (days after implantation of tumor cells) ([2]; Table 9: PBS + TMZ (10 mg/kg)) | Median Survival Time (days after implantation of tumor cells) ([2]; Table 10: PBS + TMZ (10 mg/kg)) | Toxicity of direct administration ([1]; dose of 5 mg/kg or higher)
CC(=O)O[C@@]12CO[C@@H]1C[C@H](O)[C@@]1(C)C(=O)[C@H](O)C3=C(C)[C@@H](OC(=O)[C@H](O)[C@@H](NC(=O)OC(C)(C)C)c4ccccc4)C[C@@](O)([C@@H](OC(=O)c4ccccc4)[C@H]21)C3(C)C [DTX, docetaxel] | all mice died before the end of the testing period | high toxicity | 15 days | 19 days | 11 days | 15 days | immobility, interaction deficits, and more body weight loss |  |  |  |  | 
Cn1nnc2c(C(N)=O)ncn2c1=O [TMZ, temozolomide] |  |  |  |  |  |  |  | 23 days | 27 days | 27 [26.5] days | 27 [26.5] days | 
CO[C@H]1C(=O)[C@]2(C)[C@@H](OC)C[C@H]3OC[C@@]3(OC(C)=O)[C@H]2[C@H](OC(=O)c2ccccc2)[C@]2(O)C[C@H](OC(=O)[C@H](O)[C@@H](NC(=O)OC(C)(C)C)c3ccccc3)C(C)=C1C2(C)C [CTX, cabazitaxel] | all mice died before the end of the testing period | high toxicity | 11 days | 15 days | 8 days | 12 days |  |  |  |  |  | high toxicity

— patent publication US12274688B2, “Drug-loaded mesoporous silica nanoparticle for prevention and treatment of brain cancers or brain metastases” (NANO TARGETING & THERAPY BIOPHARMA INC, priority 2022, dated 2025)
